Test results taken from EP1043318A1 (priority 1997, dated 1999).

Each compound was assayed on M. tuberculosis 16R. Conditions: strain resistant to control preparations; concentration of the preparation 50.0 g/l (table title); incubated 30 days.
Assay type: cell-based
NNC(=O)c1ccncc1 [Isoniazid] was tested, and the “M. tuberculosis 16R growth” value was “growth”. In the case of O=C1NC(=S)NC(=O)C1C(c1ccc([N+](=O)[O-])cc1)C1C(=O)NC(=S)NC1=O [X, 5,5'-(p-nitrobenzylidene)bis (2-thiobarbituric) acid], the “M. tuberculosis 16R growth” value is reported as “complete suppression of growth”. In the case of CC[C@@H](CO)NCCN[C@@H](CC)CO [Ethambutol], the “M. tuberculosis 16R growth” value is reported as “growth”. [H]/N=C(/N)N[C@H]1[C@H](O)[C@@H](O)[C@H](O[C@@H]2O[C@@H](C)[C@](O)(C=O)[C@H]2O[C@@H]2O[C@@H](CO)[C@H](O)[C@@H](O)[C@@H]2NC)[C@@H](N/C(N)=N\[H])[C@@H]1O [Streptomycin] was tested, and the “M. tuberculosis 16R growth” value was “growth”.
